Columns and labels:
[1] = target: endoproteinase Glu-C (Endo Glu-C) (Staphylococcus aureus, UniProt P0C1U8); conditions: isolated enzyme glu c, pH 8
[2] = human, plasma
[3] = target: nAChR combination α3α5β4 expressed in Xenopus oocytes; assay: cell-based or functional assay
[4] = target: α3, β4 subtype of the nAchR (Rattus norvegicus, UniProt P04757+P12392); conditions: cited from earlier work
[5] = tested on: α3-containing nAChRs; assay type: cell-based
[6] = tested on: unmyelinated C-fiber axons in isolated segments of peripheral human nerves; conditions: cited from earlier work
[7] = tested on: α9, α10 nAchR; conditions: cited from earlier work
[8] = target: homopentameric neuronal nAChR, α7 (Homo sapiens, UniProt P36544); assay type: cell-based; conditions: 10 µM
[9] = target: α3α5β4 nAChR (Homo sapiens, UniProt P30926+P32297); assay type: cell-based
[10] = in vivo; cited from earlier work
[11] = tested on: animal model of inflammatory pain; conditions: in vivo; cited from earlier work
[12] = tested on: streptozotocin-induced diabetic rat; conditions: in vivo; cited from earlier work
[13] = target: α4β4 nAChR (Homo sapiens, UniProt P30926+P43681); assay type: cell-based
[14] = tested on: rat models of human neuropathic pain; conditions: in vivo; cited from earlier work
[15] = target: α3α6β2 nAChR (Homo sapiens, UniProt P17787+P32297+Q15825); assay type: cell-based; conditions: 30 µM
[16] = target: α4β2 nAChR (Homo sapiens, UniProt P17787+P43681); assay type: cell-based
[17] = tested on: bovine adrenal chromaffin cells; assay type: cell-based
[18] = tested on: CCI-rats; conditions: rat, in vivo, po

Sequence of homopentameric neuronal nAChR, α7 (P36544 23-502 limits assumed): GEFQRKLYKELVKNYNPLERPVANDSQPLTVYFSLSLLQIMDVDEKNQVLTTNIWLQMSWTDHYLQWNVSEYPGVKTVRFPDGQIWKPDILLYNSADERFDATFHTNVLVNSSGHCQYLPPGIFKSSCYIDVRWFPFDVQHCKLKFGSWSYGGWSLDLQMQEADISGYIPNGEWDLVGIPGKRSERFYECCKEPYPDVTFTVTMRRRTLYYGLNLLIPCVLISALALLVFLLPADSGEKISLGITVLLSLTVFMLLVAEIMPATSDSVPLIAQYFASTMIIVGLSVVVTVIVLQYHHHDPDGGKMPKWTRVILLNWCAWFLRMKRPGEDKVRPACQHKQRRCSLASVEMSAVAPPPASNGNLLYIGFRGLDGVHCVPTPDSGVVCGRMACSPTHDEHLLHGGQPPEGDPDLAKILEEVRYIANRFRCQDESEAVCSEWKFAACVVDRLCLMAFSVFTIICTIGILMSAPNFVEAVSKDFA
Sequence of α4β2 nAChR (P43681 29-627 limits assumed): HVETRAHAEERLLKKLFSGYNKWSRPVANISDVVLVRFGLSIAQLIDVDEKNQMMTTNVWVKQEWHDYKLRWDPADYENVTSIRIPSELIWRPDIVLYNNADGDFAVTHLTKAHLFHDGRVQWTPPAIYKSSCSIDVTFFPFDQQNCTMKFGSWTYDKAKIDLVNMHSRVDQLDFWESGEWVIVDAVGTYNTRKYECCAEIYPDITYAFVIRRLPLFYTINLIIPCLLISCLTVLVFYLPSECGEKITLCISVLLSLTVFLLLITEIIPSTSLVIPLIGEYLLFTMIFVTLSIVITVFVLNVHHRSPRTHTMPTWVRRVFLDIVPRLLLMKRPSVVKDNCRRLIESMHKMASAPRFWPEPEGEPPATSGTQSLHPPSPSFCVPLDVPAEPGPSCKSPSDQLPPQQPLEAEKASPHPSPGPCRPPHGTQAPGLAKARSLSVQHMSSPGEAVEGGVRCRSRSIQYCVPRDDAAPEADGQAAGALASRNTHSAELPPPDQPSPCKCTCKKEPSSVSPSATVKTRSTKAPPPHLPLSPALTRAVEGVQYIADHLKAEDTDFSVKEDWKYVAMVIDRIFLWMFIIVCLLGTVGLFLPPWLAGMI
Sequence of α4β2 nAChR (P17787 26-502 limits assumed): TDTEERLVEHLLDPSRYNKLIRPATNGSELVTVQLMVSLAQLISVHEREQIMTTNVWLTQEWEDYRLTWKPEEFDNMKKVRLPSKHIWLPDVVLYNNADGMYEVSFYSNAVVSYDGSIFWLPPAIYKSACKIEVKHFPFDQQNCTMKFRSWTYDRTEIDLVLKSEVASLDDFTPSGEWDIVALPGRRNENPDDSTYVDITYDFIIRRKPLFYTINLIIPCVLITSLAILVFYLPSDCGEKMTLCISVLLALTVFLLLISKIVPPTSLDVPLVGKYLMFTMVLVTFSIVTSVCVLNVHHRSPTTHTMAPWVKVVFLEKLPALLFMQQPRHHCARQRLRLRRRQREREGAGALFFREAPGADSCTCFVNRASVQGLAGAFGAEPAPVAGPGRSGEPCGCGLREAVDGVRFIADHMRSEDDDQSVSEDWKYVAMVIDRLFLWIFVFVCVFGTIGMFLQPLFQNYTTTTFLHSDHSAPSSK
Sequence of α4β4 nAChR (P43681 29-627 limits assumed): as the sequence (P43681 29-627 limits assumed) above
Sequence of α4β4 nAChR (P30926 22-498 limits assumed): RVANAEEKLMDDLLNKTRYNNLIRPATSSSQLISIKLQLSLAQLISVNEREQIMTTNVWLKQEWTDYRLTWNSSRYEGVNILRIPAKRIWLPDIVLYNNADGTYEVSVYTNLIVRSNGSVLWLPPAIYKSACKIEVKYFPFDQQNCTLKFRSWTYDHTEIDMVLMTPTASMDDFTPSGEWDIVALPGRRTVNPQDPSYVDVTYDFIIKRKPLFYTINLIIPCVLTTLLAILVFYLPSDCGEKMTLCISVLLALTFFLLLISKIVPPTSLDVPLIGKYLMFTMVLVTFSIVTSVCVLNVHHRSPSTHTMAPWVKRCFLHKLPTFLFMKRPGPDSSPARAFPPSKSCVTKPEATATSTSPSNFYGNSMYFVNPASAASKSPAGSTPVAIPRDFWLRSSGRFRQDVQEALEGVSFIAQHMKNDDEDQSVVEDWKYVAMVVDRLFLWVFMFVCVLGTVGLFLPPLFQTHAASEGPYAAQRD
Sequence of α3, β4 subtype of the nAchR (P04757 26-499 limits assumed): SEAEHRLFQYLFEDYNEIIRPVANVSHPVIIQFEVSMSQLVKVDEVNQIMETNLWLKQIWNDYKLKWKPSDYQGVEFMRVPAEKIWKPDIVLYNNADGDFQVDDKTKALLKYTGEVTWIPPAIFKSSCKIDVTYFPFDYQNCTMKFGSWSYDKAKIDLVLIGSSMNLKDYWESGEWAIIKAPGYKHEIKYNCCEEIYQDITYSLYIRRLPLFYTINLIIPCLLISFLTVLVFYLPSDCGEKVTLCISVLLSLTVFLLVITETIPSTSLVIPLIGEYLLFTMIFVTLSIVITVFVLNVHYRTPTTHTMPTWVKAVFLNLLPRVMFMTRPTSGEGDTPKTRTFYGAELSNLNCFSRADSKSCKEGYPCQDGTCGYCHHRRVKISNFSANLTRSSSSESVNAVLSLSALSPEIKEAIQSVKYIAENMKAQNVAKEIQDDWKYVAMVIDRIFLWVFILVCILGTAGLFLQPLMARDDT
Sequence of α3, β4 subtype of the nAchR (P12392 21-495 limits assumed): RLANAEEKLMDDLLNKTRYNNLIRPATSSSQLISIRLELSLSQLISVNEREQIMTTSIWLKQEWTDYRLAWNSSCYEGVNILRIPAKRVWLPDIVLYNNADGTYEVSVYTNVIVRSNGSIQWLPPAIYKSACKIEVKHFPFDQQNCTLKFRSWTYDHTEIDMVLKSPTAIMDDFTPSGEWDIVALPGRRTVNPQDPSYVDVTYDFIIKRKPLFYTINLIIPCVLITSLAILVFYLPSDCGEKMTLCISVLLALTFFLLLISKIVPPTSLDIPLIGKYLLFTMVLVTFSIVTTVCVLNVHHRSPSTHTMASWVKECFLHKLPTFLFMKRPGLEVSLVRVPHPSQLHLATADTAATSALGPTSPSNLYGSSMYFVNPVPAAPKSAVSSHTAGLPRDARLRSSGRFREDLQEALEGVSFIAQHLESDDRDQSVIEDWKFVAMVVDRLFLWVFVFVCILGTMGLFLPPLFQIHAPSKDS
Sequence of α3α6β2 nAChR (P32297 32-505 limits assumed): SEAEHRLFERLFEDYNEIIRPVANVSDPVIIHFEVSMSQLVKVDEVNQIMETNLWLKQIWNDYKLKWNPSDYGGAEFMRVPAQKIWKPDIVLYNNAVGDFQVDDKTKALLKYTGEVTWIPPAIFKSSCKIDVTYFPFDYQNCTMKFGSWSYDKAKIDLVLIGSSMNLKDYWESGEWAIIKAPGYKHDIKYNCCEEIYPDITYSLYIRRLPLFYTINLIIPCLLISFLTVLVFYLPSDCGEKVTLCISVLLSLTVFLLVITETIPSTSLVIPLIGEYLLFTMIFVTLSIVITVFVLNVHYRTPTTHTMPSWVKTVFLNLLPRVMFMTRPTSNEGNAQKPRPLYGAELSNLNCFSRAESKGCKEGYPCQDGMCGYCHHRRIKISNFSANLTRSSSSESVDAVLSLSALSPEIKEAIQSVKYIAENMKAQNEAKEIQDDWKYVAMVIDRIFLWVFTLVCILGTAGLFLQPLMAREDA
Sequence of α3α6β2 nAChR (Q15825 26-494 limits assumed): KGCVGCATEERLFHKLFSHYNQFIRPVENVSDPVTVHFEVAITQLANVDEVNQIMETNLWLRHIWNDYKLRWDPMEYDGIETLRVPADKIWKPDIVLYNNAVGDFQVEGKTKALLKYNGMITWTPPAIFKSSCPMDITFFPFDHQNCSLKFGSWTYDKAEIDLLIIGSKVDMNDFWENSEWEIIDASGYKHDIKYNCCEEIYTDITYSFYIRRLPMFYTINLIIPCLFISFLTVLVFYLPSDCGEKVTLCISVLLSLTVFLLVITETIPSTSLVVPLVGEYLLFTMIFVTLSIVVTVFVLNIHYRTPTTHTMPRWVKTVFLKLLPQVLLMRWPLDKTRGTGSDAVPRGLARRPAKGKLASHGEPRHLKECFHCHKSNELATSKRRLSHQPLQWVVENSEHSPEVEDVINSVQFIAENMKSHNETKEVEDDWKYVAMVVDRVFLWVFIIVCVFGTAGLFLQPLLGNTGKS
Sequence of α3α6β2 nAChR (P17787 26-502 limits assumed): as the sequence (P17787 26-502 limits assumed) above
Sequence of endoproteinase Glu-C (Endo Glu-C) (P0C1U8 69-336 limits assumed): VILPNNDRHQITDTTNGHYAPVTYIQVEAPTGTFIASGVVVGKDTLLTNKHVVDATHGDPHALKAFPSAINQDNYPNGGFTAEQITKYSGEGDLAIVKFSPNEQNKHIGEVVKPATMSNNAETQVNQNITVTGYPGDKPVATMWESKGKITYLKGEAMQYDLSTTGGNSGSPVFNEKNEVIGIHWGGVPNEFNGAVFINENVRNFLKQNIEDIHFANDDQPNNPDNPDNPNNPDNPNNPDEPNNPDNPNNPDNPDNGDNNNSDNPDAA

Question: With `CC(C)C[C@@H]1NC(=O)[C@H](CC(N)=O)NC(=O)[C@H](CO)NC(=O)[C@H](Cc2cnc[nH]2)NC(=O)[C@H](CCC(=O)O)NC(=O)[C@H](CC(C)C)NC(=O)[C@H](Cc2cnc[nH]2)NC(=O)[C@@H]2CSSC[C@H](NC(=O)CN)C(=O)N[C@@H](CSSC[C@@H](C(N)=O)NC1=O)C(=O)N[C@@H](CO)C(=O)N[C@@H](CC(N)=O)C(=O)N1CCC[C@H]1C(=O)N[C@@H](C(C)C)C(=O)N2` [MII] as the compound, how does the half-life [1] read?
Answer: ~10 h

Question: And the half-life [2]?
Answer: ~16 h

Question: With α-conotoxin Vc1.1 (peptide) as the compound, how does the potency to inhibit ACh-evoked current (fold lower potency) [3] read?
Answer: > 5

Question: With Vc1.1 as the compound, how does the IC50 [4] read?
Answer: 4200 nM

Question: And the “antagonism of ACh-evoked currents” value [5]?
Answer: did not antagonise ACh-evoked currents

Question: What about the “detectable response alone (>50 nA)” value [5] of the same compound?
Answer: nor elicit a detectable response alone

Question: And the “effect on nicotine-induced increase in axonal excitability” value [6]?
Answer: antagonize

Question: And the “affinity for α9, α10 nAchR relative to α3, β4 nAchR” value [7]?
Answer: one hundred fold higher

Question: And the IC50 ([7]; read-out: affinity for the α9, α10 nAchR)?
Answer: 22.9 nM

Question: What about the “inhibition of the ACh-evoked current” value [8] of the same compound?
Answer: 14±2%

Question: And the “lower potency to inhibit α3α5β4” value [9]?
Answer: > 5 fold

Question: What about the “analgesic activity relative to Ziconotide” value [10] of the same compound?
Answer: more active than Ziconotide

Question: What about the “efficacy in an animal model of inflammatory pain” value [11] of the same compound?
Answer: effective

Question: What about the “time after dosing at which anti allodynic effect was observed” value [12] of the same compound?
Answer: ≤ 1 h

Question: And the “inhibition of ACh-evoked currents” value [13]?
Answer: failed to inhibit

Question: What about the “effect on neuropathic pain in three rat models” value [14] of the same compound?
Answer: alleviate neuropathic pain

Question: What about the “functional recovery of injured neurons” value [14] of the same compound?
Answer: accelerate the functional recovery of injured neurons

Question: And the “inhibition of ACh-induced current amplitude” value [15]?
Answer: ~50%

Question: And the “inhibition of ACh-evoked currents” value [16]?
Answer: failed to inhibit

Question: With `CC[C@H](C)[C@@H]1NC(=O)[C@H](CCC(=O)O)NC(=O)[C@@H]2CCCN2C(=O)[C@H](Cc2c[nH]cn2)NC(=O)[C@H](CC(=O)O)NC(=O)[C@H](Cc2ccc(O)cc2)NC(=O)[C@H](CC(N)=O)NC(=O)[C@@H]2CSSC[C@@H]3NC(=O)CNC(=O)CNC(=O)CNC(=O)[C@H](C)NC(=O)[C@H](C)NC(=O)CNC(=O)CNC(=O)[C@H](CSSC[C@H](NC3=O)C(=O)N[C@@H](CO)C(=O)N[C@@H](CC(=O)O)C(=O)N3CCC[C@H]3C(=O)N[C@@H](CCCNC(=N)N)C(=O)N2)NC1=O` [cVc1.1-6] as the compound, how does the “inhibition of catecholamine release, activity relative to linear Vc1.1” value [17] read?
Answer: identical, within experimental error

Question: And the ED50 [18]?
Answer: ~1 mg/kg

From patent US8354372B2 (priority 2006, dated 2013)
